Experimental data reported in ChEMBL document CHEMBL3885861, “Open TG-GATES”.

Species: Rattus norvegicus
Assay: Open TG-GATES - Regimen: Single
Type: toxicity, organism-based, Sprague-Dawley
Parameters: regimen Single, gender Male, age 6 weeks
Conditions: in vivo, po, 100 mg/kg, route gavage, dose level Middle; for APTT / Bas / Eos / Fbg / Hb / Ht / Lym / MCH / MCHC / MCV / Mono / Neu / PT / Plat / RBC / Ret / WBC: tissue Blood; for KIDNEY_L / KIDNEY_R / KIDNEY_TOTAL: tissue Kidney; for LIVER: tissue Liver; for A/G / ALP / ALT / AST / BUN / CRE / Ca / Cl / DBIL / GLC / IP / K / LDH / Na / PL / RALB / TBIL / TC / TG / TP / gamma-GTP: tissue Plasma

With `CCc1oc2ccccc2c1C(=O)c1cc(I)c(O)c(I)c1` [BENZIODARONE] the TERMINAL_BW (3 h) was 215.5 g, the APTT (3 h) was 16.9 s and the Bas (3 h) was 0%. For the same molecule, the Eos (3 h) was 0.6%, the Fbg (3 h) was 189.8 mg/dL and the Hb (3 h) was 13.1 g/dL. The Ht (3 h) was 39.1%, the Lym (3 h) was 75.8% and the MCH (3 h) was 21.8 pg. It also gave an MCHC (3 h) of 33.6%, an MCV (3 h) of 64.9 fL and a Mono (3 h) of 8.8%. The Neu (3 h) was 15%, the PT (3 h) was 11.9 s and the Plat (3 h) was 118.7 x10_4/uL. The RBC (3 h) was 603 x10_4/ul, the Ret (3 h) was 9.2% and the WBC (3 h) was 94.2 x10_2/uL. It also gave a KIDNEY_L (3 h) of 1 g, a KIDNEY_R (3 h) of 1 g and a KIDNEY_TOTAL (3 h) of 2 g. For the same molecule, the LIVER (3 h) was 10.2 g, the A/G (3 h) was 2.1 and the ALP (3 h) was 966.8 IU/L. The ALT (3 h) was 36.6 IU/L, the AST (3 h) was 69 IU/L and the BUN (3 h) was 12.6 mg/dL. For the same molecule, the CRE (3 h) was 0.5 mg/dL, the Ca (3 h) was 10.5 mg/dL and the Cl (3 h) was 102.4 meq/L. It also gave a DBIL (3 h) of 0.02 mg/dL, a GLC (3 h) of 201.2 mg/dL and an IP (3 h) of 9.3 mg/dL. It also gave a K (3 h) of 4.4 meq/L, an LDH (3 h) of 110 IU/L and a Na (3 h) of 140.4 meq/L. For the same molecule, the PL (3 h) was 128.6 mg/dL, the RALB (3 h) was 3.5 g/dL and the TBIL (3 h) was 0.5 mg/dL. The TC (3 h) was 73.8 mg/dL, the TG (3 h) was 52.4 mg/dL and the TP (3 h) was 5.2 g/dL. The gamma-GTP (3 h) was 1.8 IU/L, the TERMINAL_BW (6 h) was 210.6 g and the APTT (6 h) was 16.8 s. The Bas (6 h) was 0%, the Eos (6 h) was 1% and the Fbg (6 h) was 217.8 mg/dL. For the same molecule, the Hb (6 h) was 13.6 g/dL, the Ht (6 h) was 40.7% and the Lym (6 h) was 73.2%. The MCH (6 h) was 21.7 pg, the MCHC (6 h) was 33.3% and the MCV (6 h) was 65.1 fL. The Mono (6 h) was 9.2%, the Neu (6 h) was 16.4% and the PT (6 h) was 11.8 s. For the same molecule, the Plat (6 h) was 109.1 x10_4/uL, the RBC (6 h) was 625.8 x10_4/ul and the Ret (6 h) was 10.1%. The WBC (6 h) was 113.1 x10_2/uL, the KIDNEY_L (6 h) was 0.9 g and the KIDNEY_R (6 h) was 0.9 g. The KIDNEY_TOTAL (6 h) was 1.9 g, the LIVER (6 h) was 9.7 g and the A/G (6 h) was 2. It also gave an ALP (6 h) of 826.8 IU/L, an ALT (6 h) of 32.6 IU/L and an AST (6 h) of 61.2 IU/L. The BUN (6 h) was 12.4 mg/dL, the CRE (6 h) was 0.5 mg/dL and the Ca (6 h) was 10.7 mg/dL. The Cl (6 h) was 103.2 meq/L, the DBIL (6 h) was 0.02 mg/dL and the GLC (6 h) was 182.4 mg/dL. For the same molecule, the IP (6 h) was 9.9 mg/dL, the K (6 h) was 4.6 meq/L and the LDH (6 h) was 108.4 IU/L. It also gave a Na (6 h) of 140.4 meq/L, a PL (6 h) of 133 mg/dL and an RALB (6 h) of 3.6 g/dL. It also gave a TBIL (6 h) of 0.3 mg/dL, a TC (6 h) of 74.4 mg/dL and a TG (6 h) of 77.8 mg/dL. It also gave a TP (6 h) of 5.4 g/dL, a gamma-GTP (6 h) of 1.6 IU/L and a TERMINAL_BW (9 h) of 209.5 g. It also gave an APTT (9 h) of 16.8 s, a Bas (9 h) of 0% and an Eos (9 h) of 1%. For the same molecule, the Fbg (9 h) was 202.2 mg/dL, the Hb (9 h) was 13.6 g/dL and the Ht (9 h) was 40.8%. For the same molecule, the Lym (9 h) was 76.4%, the MCH (9 h) was 21.3 pg and the MCHC (9 h) was 33.3%. The MCV (9 h) was 63.9 fL, the Mono (9 h) was 7.4% and the Neu (9 h) was 15.4%. The PT (9 h) was 12.4 s, the Plat (9 h) was 121.3 x10_4/uL and the RBC (9 h) was 638.4 x10_4/ul. The Ret (9 h) was 8.2%, the WBC (9 h) was 86.5 x10_2/uL and the KIDNEY_L (9 h) was 1 g. The KIDNEY_R (9 h) was 0.9 g, the KIDNEY_TOTAL (9 h) was 1.9 g and the LIVER (9 h) was 8.9 g. For the same molecule, the A/G (9 h) was 2.3, the ALP (9 h) was 766.6 IU/L and the ALT (9 h) was 29.8 IU/L. For the same molecule, the AST (9 h) was 63.4 IU/L, the BUN (9 h) was 13 mg/dL and the CRE (9 h) was 0.5 mg/dL. It also gave a Ca (9 h) of 10.3 mg/dL, a Cl (9 h) of 105.2 meq/L and a DBIL (9 h) of 0.07 mg/dL. For the same molecule, the GLC (9 h) was 194.8 mg/dL, the IP (9 h) was 10.9 mg/dL and the K (9 h) was 4.5 meq/L. It also gave an LDH (9 h) of 108.8 IU/L, a Na (9 h) of 142.4 meq/L and a PL (9 h) of 122.8 mg/dL. The RALB (9 h) was 3.7 g/dL, the TBIL (9 h) was 0.3 mg/dL and the TC (9 h) was 68.2 mg/dL. The TG (9 h) was 56.6 mg/dL, the TP (9 h) was 5.4 g/dL and the gamma-GTP (9 h) was 0.6 IU/L. The TERMINAL_BW (24 h) was 228.7 g, the APTT (24 h) was 17.4 s and the Bas (24 h) was 0%. It also gave an Eos (24 h) of 1.2%, a Fbg (24 h) of 196.8 mg/dL and a Hb (24 h) of 13.2 g/dL. It also gave a Ht (24 h) of 39.3%, a Lym (24 h) of 73.8% and an MCH (24 h) of 22 pg. The MCHC (24 h) was 33.7%, the MCV (24 h) was 65.4 fL and the Mono (24 h) was 9.6%. For the same molecule, the Neu (24 h) was 15.6%, the PT (24 h) was 12.1 s and the Plat (24 h) was 113.1 x10_4/uL. The RBC (24 h) was 601.2 x10_4/ul, the Ret (24 h) was 9% and the WBC (24 h) was 106.2 x10_2/uL. The KIDNEY_L (24 h) was 1 g, the KIDNEY_R (24 h) was 1 g and the KIDNEY_TOTAL (24 h) was 2 g. For the same molecule, the LIVER (24 h) was 11.9 g, the A/G (24 h) was 2.1 and the ALP (24 h) was 1017.4 IU/L. For the same molecule, the ALT (24 h) was 36.8 IU/L, the AST (24 h) was 66 IU/L and the BUN (24 h) was 17.8 mg/dL. The CRE (24 h) was 0.5 mg/dL, the Ca (24 h) was 10.6 mg/dL and the Cl (24 h) was 104.8 meq/L. The DBIL (24 h) was 0.006 mg/dL, the GLC (24 h) was 196 mg/dL and the IP (24 h) was 7.6 mg/dL. It also gave a K (24 h) of 4.6 meq/L, an LDH (24 h) of 87.6 IU/L and a Na (24 h) of 140.8 meq/L. It also gave a PL (24 h) of 129 mg/dL, an RALB (24 h) of 3.7 g/dL and a TBIL (24 h) of 0.4 mg/dL. The TC (24 h) was 65.8 mg/dL, the TG (24 h) was 84 mg/dL and the TP (24 h) was 5.5 g/dL. For the same molecule, the gamma-GTP (24 h) was 1 IU/L.
